Patent US9199962B2, “Substituted azaheterocycles for the treatment of cancer” (Merck Patent GmbH, priority 2011, dated 2015)
Read-outs that look alike come from different tables or passages of the source.

Key:
[1] = molecular target: T1, GST-FAK (N-terminal GST fusion with truncated human FAK (376-1052 (end) amino acids)) (Homo sapiens, UniProt Q05397); assay: Biochemical enzyme assay for FAK activity (Caliper LC3000 mobility shift); conditions: 100 uM ATP, read-out: FAK IC50
T1 construct: truncated human FAK (376-1052 (end) amino acids)
T1 sequence (Q05397 376-1052): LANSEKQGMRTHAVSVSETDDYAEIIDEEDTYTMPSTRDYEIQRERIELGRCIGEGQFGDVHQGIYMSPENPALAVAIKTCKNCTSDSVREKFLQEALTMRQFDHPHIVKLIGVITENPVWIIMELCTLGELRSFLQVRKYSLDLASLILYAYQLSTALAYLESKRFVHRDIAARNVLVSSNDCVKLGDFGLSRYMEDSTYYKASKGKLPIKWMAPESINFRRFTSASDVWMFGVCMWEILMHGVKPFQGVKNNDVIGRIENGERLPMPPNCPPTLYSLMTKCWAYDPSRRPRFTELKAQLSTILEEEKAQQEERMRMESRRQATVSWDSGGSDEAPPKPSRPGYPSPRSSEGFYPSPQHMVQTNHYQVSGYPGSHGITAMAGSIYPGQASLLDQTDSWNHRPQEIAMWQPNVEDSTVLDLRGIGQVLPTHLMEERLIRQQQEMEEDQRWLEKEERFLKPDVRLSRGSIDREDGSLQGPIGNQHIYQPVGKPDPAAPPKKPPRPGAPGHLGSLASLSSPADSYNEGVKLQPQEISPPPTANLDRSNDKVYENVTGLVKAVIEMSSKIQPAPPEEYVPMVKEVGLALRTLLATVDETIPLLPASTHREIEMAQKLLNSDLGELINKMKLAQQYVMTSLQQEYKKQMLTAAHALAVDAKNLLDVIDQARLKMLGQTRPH
In short: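 Inhibitor dose series in DMSO were incubated 90 min at 25 °C with truncated GST-tagged human FAK (0.067 ng/µl) and FITC-labelled peptide substrate (1 µM), with ATP at 100 µM and FERM peptide at 1 mM (pH 7.5 HEPES). After EDTA quench, phosphorylated and unphosphorylated peptides were resolved electrophoretically. Percent conversion was fitted for IC50.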

[2] = molecular target: T2, focal adhesion kinase (FAK) autophosphorylation at tyrosine 397 in HT29 cells (Homo sapiens, UniProt Q05397); assay: Cellular testing of FAK inhibitors: FAK autophosphorylation at tyrosine 397 in HT29 cells (Luminex-based assay); assay type: cell-based; conditions: Table 2, phospho-Y397-FAK, 30 min serum-free, read-out: HT-29 IC50
T2 construct: endogenous in cells; host or cells: HT29
T2 sequence (Q05397 whole entry): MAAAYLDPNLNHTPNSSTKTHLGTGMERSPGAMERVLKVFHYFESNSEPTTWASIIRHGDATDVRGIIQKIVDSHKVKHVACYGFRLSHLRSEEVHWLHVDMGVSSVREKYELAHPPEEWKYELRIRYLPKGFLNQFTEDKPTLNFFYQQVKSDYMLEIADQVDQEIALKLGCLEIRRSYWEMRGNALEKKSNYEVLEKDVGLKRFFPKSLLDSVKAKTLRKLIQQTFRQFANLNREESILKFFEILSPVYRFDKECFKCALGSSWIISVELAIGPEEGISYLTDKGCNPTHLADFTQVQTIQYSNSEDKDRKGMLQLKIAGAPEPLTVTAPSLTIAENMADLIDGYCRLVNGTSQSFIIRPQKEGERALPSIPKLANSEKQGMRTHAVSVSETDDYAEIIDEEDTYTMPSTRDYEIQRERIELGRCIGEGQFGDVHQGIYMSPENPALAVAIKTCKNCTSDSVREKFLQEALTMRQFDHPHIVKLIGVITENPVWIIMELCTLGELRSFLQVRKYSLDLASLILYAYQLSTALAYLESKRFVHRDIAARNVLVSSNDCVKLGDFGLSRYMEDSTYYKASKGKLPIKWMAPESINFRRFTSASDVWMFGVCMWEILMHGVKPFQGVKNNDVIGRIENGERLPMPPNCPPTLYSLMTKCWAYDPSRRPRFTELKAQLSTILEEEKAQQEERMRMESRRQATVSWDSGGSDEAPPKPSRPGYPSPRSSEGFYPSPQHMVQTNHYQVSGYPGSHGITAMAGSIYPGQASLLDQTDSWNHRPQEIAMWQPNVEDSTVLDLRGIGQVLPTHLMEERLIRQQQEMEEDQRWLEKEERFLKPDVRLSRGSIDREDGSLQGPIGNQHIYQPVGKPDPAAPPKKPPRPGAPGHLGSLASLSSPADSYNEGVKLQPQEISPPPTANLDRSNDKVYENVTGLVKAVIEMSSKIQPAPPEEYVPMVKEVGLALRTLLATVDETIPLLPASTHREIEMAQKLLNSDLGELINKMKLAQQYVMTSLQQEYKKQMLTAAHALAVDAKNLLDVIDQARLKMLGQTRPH
Description: 2. Assay Principle for Celluar Testing of FAK Inhibitors
Cellular activity of focal adhesion kinase (FAK) is determined by the degree of FAK autophosphorylation at tyrosine 397 using a Luminex-based assay. HT29 cells are plated with 30,000 cells per well of a 96-well plate in 100 μl medium (90% DMEM/10% FCS). At the following day, test compounds are added in a serial dilution under serum-free conditions for 30 min. Then, cells were lysed with 90 μl lysis buffer (20 mM Tris/HCl pH 8.0, 150 mM NaCl, 1% NP40, 10% Glycerol, 1% Phosphatase-Inhibitor II, 20 mM […]-Glycerolphosphat, 0.1% Protease-Inhibitor Cocktail III, 0.01% Benzonase) and lysates were cleared by centrifugation through a 96-well filter plate (0.65 μm). Samples were incubated with Luminex-beads which were coupled with an anti-total FAK antibody overnight at 4° C. with under gentle agitation. For detection of phospho-Y397-FAK a phosphospecific antibody and a species specific PE-labeled secondary antibody are added. The amount of phospho-Y397-FAK is determined in a Luminex100 machine measuring 100 events per well within 60 seconds.
Counts from samples treated with a FAK reference inhibitor are subtracted as pharmacological blank. Counts from samples treated with test compounds are calculated as percent of control from solvent treated (0.3% DMSO) samples. IC50 values were determined using AssayExplorer software.

| Compound | IC50 ([1]; Table 2) [nM] | IC50 [2] [nM] | IC50 ([1]; Table 5) [nM] |
| --- | --- | --- | --- |
| NC(=O)CCNC(=O)c1cc(NCc2ccc(F)cc2F)nc(-c2cncc(C(F)(F)F)c2)n1 [Compound 41, 6-(2,4-Difluoro-benzylamino)-2-(5-trifluoromethyl-pyridin-3-yl)-pyrimidine-4-carboxylic acid (2-carbamoyl-ethyl)-amide] | < 100 | 100 to 1000 |  |
| CCN(CC)C(=O)CCNC(=O)c1cc(NCc2ccc(F)cc2F)nc(-c2cncc(C(F)(F)F)c2)n1 [Compound 42, 6-(2,4-Difluoro-benzylamino)-2-(5-trifluoromethyl-pyridin-3-yl)-pyrimidine-4-carboxylic acid (2-diethylcarbamoyl-ethyl)-amide] | < 100 | 1000 to 10000 |  |
| O=C(NCCC(=O)N1CCOCC1)c1cc(NCc2ccc(F)cc2F)nc(-c2cncc(C(F)(F)F)c2)n1 [Compound 43, 6-(2,4-Difluoro-benzylamino)-2-(5-trifluoromethyl-pyridin-3-yl)-pyrimidine-4-carboxylic acid (3-morpholin-4-yl-3-oxo-propyl)-amide] | < 100 | 1000 to 10000 |  |
| CN1CCN(C(=O)CCNC(=O)c2cc(NCc3ccc(F)cc3F)nc(-c3cncc(C(F)(F)F)c3)n2)CC1 [Compound 44, 6-(2,4-Difluoro-benzylamino)-2-(5-trifluoromethyl-pyridin-3-yl)-pyrimidine-4-carboxylic acid [3-(4-methyl-piperazin-1-yl)-3-oxo-propyl]-amide] | < 100 | 1000 to 10000 |  |
| CN(C)CCCNC(=O)c1cc(NCc2ccc(F)cc2F)nc(-c2cncc(C(F)(F)F)c2)n1 [Compound 45, 6-(2,4-Difluoro-benzylamino)-2-(5-trifluoromethyl-pyridin-3-yl)-pyrimidine-4-carboxylic acid (3-dimethylamino-propyl)-amide] | < 100 | 1000 to 10000 |  |
| O=C(NCCCn1ccnc1)c1cc(NCc2ccc(F)cc2F)nc(-c2cncc(C(F)(F)F)c2)n1 [Compound 46, 6-(2,4-Difluoro-benzylamino)-2-(5-trifluoromethyl-pyridin-3-yl)-pyrimidine-4-carboxylic acid (3-imidazol-1-yl-propyl)-amide] | < 100 | 1000 to 10000 |  |
| O=C(NCCCN1CCCC1=O)c1cc(NCc2ccc(F)cc2F)nc(-c2cncc(C(F)(F)F)c2)n1 [Compound 47, 6-(2,4-Difluoro-benzylamino)-2-(5-trifluoromethyl-pyridin-3-yl)-pyrimidine-4-carboxylic acid [3-(2-oxo-pyrrolidin-1-yl)-propyl]-amide] | < 100 | 100 to 1000 |  |
| O=C(NCCCN1CCOCC1)c1cc(NCc2ccc(F)cc2F)nc(-c2cncc(C(F)(F)F)c2)n1 [Compound 48, 6-(2,4-Difluoro-benzylamino)-2-(5-trifluoromethyl-pyridin-3-yl)-pyrimidine-4-carboxylic acid (3-morpholin-4-yl-propyl)-amide] | < 100 | > 10000 |  |
| NC(=O)C1CCN(C(=O)c2cc(NCc3ccc(F)cc3F)nc(-c3cncc(C(F)(F)F)c3)n2)CC1 [Compound 49, 1-[6-(2,4-Difluoro-benzylamino)-2-(5-trifluoromethyl-pyridin-3-yl)-pyrimidine-4-carbonyl]-piperidine-4-carboxylic acid amide] | < 100 | 1000 to 10000 |  |
| NC(=O)C1CCCN(C(=O)c2cc(NCc3ccc(F)cc3F)nc(-c3cncc(C(F)(F)F)c3)n2)C1 (centres unmarked) [Compound 50, 1-[6-(2,4-Difluoro-benzylamino)-2-(5-trifluoromethyl-pyridin-3-yl)-pyrimidine-4-carbonyl]-piperidine-3-carboxylic acid amide] | < 100 | 1000 to 10000 |  |
| CNC(=O)c1ccccc1Nc1ccnc(-c2cncc(C(F)(F)F)c2)n1 [Compound 256, N-Methyl-2-[2-(5-trifluoromethyl-pyridin-3-yl)-pyrimidin-4-ylamino]-benzamide] |  |  | > 10000 |
| Cn1cc(-c2cc(NCc3ccc(F)cc3F)nc(-c3cncc(C(F)(F)F)c3)n2)cn1 [Compound 257, (2,4-Difluoro-benzyl)-[6-(1-methyl-1H-pyrazol-4-yl)-2-(5-trifluoromethyl-pyridin-3-yl)-pyrimidin-4-yl]-amine] |  |  | 100 to 1000 |
| Cn1cc(-c2cc(NCc3ccc(F)cc3F)nc(-c3cnn(C)c3)n2)cn1 [Compound 258, [2,6-Bis-(1-methyl-1H-pyrazol-4-yl)-pyrimidin-4-yl]-(2,4-difluoro-benzyl)-amine] |  |  | 1000 to 10000 |
| CN1CCN(C(=O)c2cc(NCc3ccc(F)cc3F)nc(-c3cncc(C(F)(F)F)c3)n2)CC1 [Compound 259, [6-(2,4-Difluoro-benzylamino)-2-(5-trifluoromethyl-pyridin-3-yl)-pyrimidin-4-yl]-(4-methyl-piperazin-1-yl)-methanone] |  |  | 100 to 1000 |
| O=C(c1cc(NCc2ccc(F)cc2F)nc(-c2cncc(C(F)(F)F)c2)n1)N1CCOCC1 [Compound 260, [6-(2,4-Difluoro-benzylamino)-2-(5-trifluoromethyl-pyridin-3-yl)-pyrimidin-4-yl]-morpholin-4-yl-methanone] |  |  | < 100 |
| O=C(Nc1cccnc1)c1cc(NCc2ccc(F)cc2F)nc(-c2cncc(C(F)(F)F)c2)n1 [Compound 261, 6-(2,4-Difluoro-benzylamino)-2-(5-trifluoromethyl-pyridin-3-yl)-pyrimidine-4-carboxylic acid pyridin-3-ylamide] |  |  | 100 to 1000 |
| CNC(=O)C1(NC(=O)c2cc(NCc3ccc(F)cc3F)nc(-c3cncc(C(F)(F)F)c3)n2)CC1 [Compound 262, 6-(2,4-Difluoro-benzylamino)-2-(5-trifluoromethyl-pyridin-3-yl)-pyrimidine-4-carboxylic acid (1-methylcarbamoyl-cyclopropyl)-amide] |  |  | 100 to 1000 |
| CC(NC(=O)c1cc(NCc2ccc(F)cc2F)nc(-c2cncc(C(F)(F)F)c2)n1)C(N)=O (centres unmarked) [Compound 263, 6-(2,4-Difluoro-benzylamino)-2-(5-trifluoromethyl-pyridin-3-yl)-pyrimidine-4-carboxylic acid (1-carbamoyl-ethyl)-amide] |  |  | < 100 |
| CN(C)C(=O)c1cc(NCc2ccc(F)cc2F)nc(-c2cncc(C(F)(F)F)c2)n1 [Compound 264, 6-(2,4-Difluoro-benzylamino)-2-(5-trifluoromethyl-pyridin-3-yl)-pyrimidine-4-carboxylic acid dimethylamide] |  |  | < 100 |
| CN(c1ncccc1CNc1ccnc(-c2cncc(C(F)(F)F)c2)n1)S(C)(=O)=O [Compound 265, N-Methyl-N-(3-{[2-(5-trifluoromethyl-pyridin-3-yl)-pyrimidin-4-ylamino]-methyl}-pyridin-2-yl)-methanesulfonamide] |  |  | 1000 to 10000 |
| Fc1ccc(CNc2cc(-c3cncc(C(F)(F)F)c3)nc(-c3cncc(C(F)(F)F)c3)n2)c(F)c1 [Compound 266, [2,6-Bis-(5-trifluoromethyl-pyridin-3-yl)-pyrimidin-4-yl]-(2,4-difluoro-benzyl)-amine] |  |  | 1000 to 10000 |
| CC(Nc1ccnc(-c2cncc(C(F)(F)F)c2)n1)c1ccccc1F (centres unmarked) [Compound 267, [1-(2-Fluoro-phenyl)-ethyl]-[2-(5-trifluoromethyl-pyridin-3-yl)-pyrimidin-4-yl]-amine] |  |  | 100 to 1000 |
| CNC(=O)C(Nc1ccnc(-c2cncc(C(F)(F)F)c2)n1)c1ccccc1 (centres unmarked) [Compound 268, N-Methyl-2-phenyl-2-[2-(5-trifluoromethyl-pyridin-3-yl)-pyrimidin-4-ylamino]-acetamide] |  |  | 1000 to 10000 |
| CNC(=O)C(Nc1ccnc(-c2cncc(C(F)(F)F)c2)n1)c1ccc(O)cc1 (centres unmarked) [Compound 269, 2-(4-Hydroxy-phenyl)-N-methyl-2-[2-(5-trifluoromethyl-pyridin-3-yl)-pyrimidin-4-ylamino]-acetamide] |  |  | > 10000 |
| C[C@@H](Nc1ccnc(-c2cncc(C(F)(F)F)c2)n1)c1ccc(F)cc1 [Compound 270, [(R)-1-(4-Fluoro-phenyl)-ethyl]-[2-(5-trifluoromethyl-pyridin-3-yl)-pyrimidin-4-yl]-amine] |  |  | 100 to 1000 |
| OC[C@H](Nc1ccnc(-c2cncc(C(F)(F)F)c2)n1)c1ccccc1 [Compound 271, (R)-2-Phenyl-2-[2-(5-trifluoromethyl-pyridin-3-yl)-pyrimidin-4-ylamino]-ethanol] |  |  | 100 to 1000 |
| O=C(O)c1cc(NCc2ccc(F)cc2F)nc(-c2cncc(C(F)(F)F)c2)n1 [Compound 272, 6-(2,4-Difluoro-benzylamino)-2-(5-trifluoromethyl-pyridin-3-yl)-pyrimidine-4-carboxylic acid] |  |  | 100 to 1000 |
| COC(=O)c1cc(NCc2ccc(F)cc2F)nc(-c2cncc(C(F)(F)F)c2)n1 [Compound 273, 6-(2,4-Difluoro-benzylamino)-2-(5-trifluoromethyl-pyridin-3-yl)-pyrimidine-4-carboxylic acid methyl ester] |  |  | 100 to 1000 |
